Measured values from PMC6930223 (Scientific Reports, 2019).

Columns and labels:
hERG1a = test system: hERG1a; set-up: method as in PMID 27260674; conditions: read-out: IC50 in hERG1a-transfected HEK293 cells; cited from earlier work
hERG1a/Hsp70 complexes = assay: Co-immunoprecipitation of cg-hERG1a with chaperone; format: cell-based, human; conditions: 24 h
Procedure: (§1) The co-immunoprecipitation method was adapted and modified slightly from the previously described methodologies[40],[52]. The treated recombinant cells were incubated for 15 min at room temperature with PBS containing cross-linker 1.5 mM dithiobis (succinimidyl propionate) (DSP, Pierce USA). The cross-linker was quenched by addition of 10 mM Tris (pH 7.5) and incubated for 10 min at room temperature. Cells were detached in 10 ml ice-cold PBS and centrifuged at 300 x g for 5 min at 4 °C. The pellet was then resuspended in 300 µl ice-cold complete diluted RIPA lysis buffer containing 0.1% (v/v) NP40, 50 mM Tris pH 7.5, 150 mM NaCl, 1x PMSF solution, 1x sodium orthovanadate solution and 1x protease inhibitor cocktail solution. Subsequently, the cell suspension was incubated at 4 °C for 30 min with constant agitation and finally centrifuged at 14, 000 rpm for 10 min at 4 °C. The supernatant was saved for total protein quantitation and subsequently for co-immunoprecipitation experiments.
(§2) Briefly, 500 µg of isolated total protein was mixed with 2 µg of hERG1 rabbit polyclonal IgG (Santa Cruz Biotechnology Inc., USA), mouse Hsp70/Hsc70 monoclonal antibody (Santa Cruz Biotechnology Inc., USA) or mouse Hsp90α/β monoclonal antibody (Santa-Cruz Biotechnology Inc., USA) respectively and incubated on ice on a rotary shaker overnight. Subsequently, 30 µl of protein A/G PLUS-agarose immunoprecipitation reagent (Santa Cruz Biotechnology Inc., USA) was added into the mixture, and incubated on ice on a shaker for 8 h and subsequently stored in 4 °C overnight. The mixture was centrifuged at 1500 rpm for 5 min at 4 °C, and the pellet was washed with ice-cold PBST, each time repeating the centrifugation process. Finally, the pellet was resuspended in 25 µl 1x Laemmli sample buffer (Bio-Rad Laboratories Inc., USA) with 2.5% (v/v) β-mercaptoethanol, and then heated at 70 °C for 2 h to reverse cross-linking and to release the immunoprecipitated protein from A/G PLUS-agarose beads. The samples were centrifuged at 1500 rpm for 5 min at 4 °C to pellet the agarose beads and 20 µl of the supernatant was used for subsequent SDS-PAGE and immunoblotting analysis as described previously.
(§3) To analyze the immunoprecipitated proteins, the membrane was probed with rabbit anti-potassium channel Kv11.1 extracellular antibody (1:200) (Sigma-Aldrich, USA), mouse Hsp70/Hsc70 monoclonal antibody (1:10, 000) and mouse Hsp90α/β monoclonal antibody (1:10, 000) in the same container. […] To quantify hERG1/chaperone interactions, image densities of the core-glycosylated (cg) hERG1 protein found in immunoprecipitations with anti-hERG1 antibody were used as a measure of total hERG1a protein present. […]

hERG1a/Hsp90 complexes = assay: Co-immunoprecipitation of cg-hERG1a with chaperone; format: cell-based, human; conditions: 10 µM, 24 h, vs untreated control
Procedure: as §1, §2, §3

[1] = test system: hERG1a protein (fg 155 kDa, cg 135 kDa); assay: Western blot protein expression in HEK293-hERG1a/1b cells; format: cell-based, human; conditions: 24 h
Procedure: (§4) Total protein was isolated using RIPA lysis buffer system (Santa Cruz Biotechnology, Inc., USA). Equal amounts of protein samples were loaded onto 7.5% (v/v) polyacrylamide gels and were subsequently transferred to Immobilon®-P PVDF membrane (Millipore, USA) using Trans-Blot® Turbo™ Blotting System (Bio-Rad Laboratories, USA). Blots were blocked with 3% (w/v) skim milk for 1 h and probed with optimized primary antibodies against hERG1a (1:5000), hERG1b (1:1250), Hsp70 (1:10, 000), Hsp90 (1:5000) and β-actin (1:5000) overnight at 4 °C. Finally, the blots were then incubated in horseradish peroxidase (HRP) conjugated secondary antibody (1:1000) for 2.5 h followed by Clarity™ Western ECL substrate (Bio-Rad Laboratories, USA). The antibodies used for Western blotting were rabbit hERG1a polyclonal antibody (Enzo Life Sciences, USA), rabbit hERG1b polyclonal antibody (Enzo Life Sciences, USA), rabbit Hsc70/Hsp70 polyclonal antibody (Enzo Life Sciences, USA), rabbit Hsp90 polyclonal antibody (Enzo Life Sciences, USA), rabbit β-actin antibody (Cell Signaling, USA) and anti-rabbit IgG HRP-linked antibody (Cell Signaling, USA). Chemiluminescence signal was detected using ChemiDoc™ XRS Imaging System (Bio-Rad Laboratories, USA). Band densities were scanned and quantified using Image Lab Software (Bio-Rad Laboratories, USA). The signal for each protein band was normalized to the reference protein, β-actin. Experiments were conducted in duplicate and represented as mean fold changes of three independent experiments.

[2] = test system: hERG1b protein (fg 95 kDa, cg 80 kDa); assay: as above; format: cell-based, human; conditions: all concentrations, 24 h
Procedure: as §4

hERG1a mRNA = assay: RT-qPCR mRNA expression in HEK293-hERG1a/1b cells; format: cell-based, human; conditions: all concentrations, 24 h at 37 °C
Procedure: (§5) Briefly, total cellular RNA was isolated from treated cells using RNeasy® Plus Mini kit (Qiagen, Germany) following manufacturer’s instruction. The optimized RT-qPCR assay was performed using CFX96™ real-time PCR system (Bio-Rad Laboratories Inc., USA) with the following cycle parameters: 10 min at 50 °C for reverse transcription, 1 min at 95 °C for activation of Taq polymerase, followed by 40 cycles of 10 s at 95 °C for denaturation and 30 s at 53.9 °C for annealing and data acquisition. Specifically, the assay was performed using 100 ng of total RNA and iTaq™ Universal SYBR® Green One-Step Kit (Bio-Rad Laboratories Inc., USA) in 10 µl of reaction volume. A melt curve analysis was computed at the end of the qPCR cycles to determine the specificity of the primers. The results were analyzed using CFX Manager software version 3.1 (Bio-Rad Laboratories Inc., USA). The mRNA expressions of hERG1a/1b were presented as fold changes normalized to endogenous reference genes, ACTB and GAPDH, and relative to the control gene[69]–[71]. Each experiment was conducted in triplicate and data are presented as mean fold changes of three independent experiments.

hERG1b mRNA = assay: RT-qPCR mRNA expression in HEK293-hERG1a/1b cells; format: cell-based, human; conditions: all concentrations, 24 h at 37 °C
Procedure: as §5

Substance: mitragynine
- IC50 (hERG1a): 1.62 µM
- association of hERG1a/Hsp70 (hERG1a/Hsp70 complexes; 1 µM): not significantly affected
- association of hERG1a/Hsp70 (hERG1a/Hsp70 complexes; 10 μM): not significantly affected
- relative expression of hERG1a/Hsp90 complexes (hERG1a/Hsp90 complexes): significantly increased
- up-regulation of hERG1a interacting with Hsp90 (hERG1a/Hsp90 complexes): approximately 2.5 fold
- increase of cg-hERG1a expression ([1]; 10 µM, vs untreated control): ~50%
- reduction of fg-hERG1a expression ([1]; 10 µM, vs untreated control): approximately 22.3%
- expression of cg-hERG1a ([1]; 0.001–1 µM): unaffected
- protein expression of fg-hERG1a ([1]; 0.001–1 µM): no clear pattern
- cg-hERG1b protein expression [2]: no significant changes
- fg-hERG1b protein expression [2]: no significant changes
- effect on mRNA expression of hERG1a (hERG1a mRNA): did not affect
- effect on mRNA expression of hERG1b (hERG1b mRNA): did not affect
